Assay results reported in ChEMBL document CHEMBL1149454, “Synthesis and in vitro antitubercular activity of some 1-[(4-sub)phenyl]-3-(4-{1-[(pyridine-4-carbonyl)hydrazono]ethyl}phenyl)thiourea” (Bioorg Med Chem Lett, 2006).
In brackets after ≈: the same amount, converted by molar mass.

Columns and labels:
[1] = system: Mycobacterium tuberculosis; experiment: Antibacterial activity against Mycobacterium tuberculosis H37Rv; assay type: functional
Vero [2] = experiment: Inhibition of mammalian Vero cell viability at 6.25 and 62.5 ug/ml by MTT assay; assay type: functional, cell-based; conditions: Chlorocebus sabaeus
Vero [3] = experiment: Selectivity index as ratio of IC50 over MIC; assay type: functional

| Compound | MIC [1] [µM] | IC50 (Vero [2]) [µM] | Selectivity index (Vero [3]) |
| --- | --- | --- | --- |
| C/C(=N/NC(=O)c1ccncc1)c1ccc(N/C(S)=N/c2ccc(C)cc2)cc1 | 1.93 (≈ 0.779 µg/mL) | 155 |  |
| C/C(=N/NC(=O)c1ccncc1)c1ccc(N/C(S)=N/c2ccc(F)cc2)cc1 | 0.49 (≈ 0.2 µg/mL) | > 153 | >312 |
| COc1ccc(N/C(S)=N\c2ccc(/C(C)=N\NC(=O)c3ccncc3)cc2)cc1 | 0.47 (≈ 0.197 µg/mL) | > 149 |  |
| CCOc1ccc(N/C(S)=N\c2ccc(/C(C)=N\NC(=O)c3ccncc3)cc2)cc1 | 0.89 (≈ 0.386 µg/mL) | 144 |  |
| C/C(=N/NC(=O)c1ccncc1)c1ccc(N/C(S)=N/c2ccccc2)cc1 | 4 (≈ 1.56 µg/mL) | 160 |  |
| C/C(=N/NC(=O)c1ccncc1)c1ccc(N/C(S)=N/c2ccc(Br)cc2)cc1 | 1.66 (≈ 0.778 µg/mL) | 133 |  |
| NNC(=O)c1ccncc1 [ISONIAZID] | 1.46 (≈ 0.2 µg/mL) | > 455 |  |
